Reference: the supplement of paper PMC10307832

Experiments:
Assay in all cases: relative viability (nuclei count vs DMSO), 5 days (fraction); higher = more cells survive
XMD8-85 + Lapatinib = compound: CN1CCN(CC1)C2=CC(=C(C=C2)NC3=NC=C4C(=N3)N(C5=CC=CC=C5C(=O)N4C)C)OC [XMD8-85] + CS(=O)(=O)CCNCc1ccc(-c2ccc3ncnc(Nc4ccc(OCc5cccc(F)c5)c(Cl)c4)c3c2)o1 [Lapatinib] (partner 2 µM)
In short: (§1)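 After 5 days of treatment, lung cancer cells in 1536-well plates were fixed and stained in a single step (final 0.05% Triton X-100, 1% formaldehyde, 1 ug/ml Hoechst) and their nuclei counted on 4× images. Treatment had been applied by pin tool the day after seeding as one drug alone or as a fixed anchor-drug dose with five library-drug doses (not always all listed) in √10 steps. Relative viability is the nuclei count of treated wells divided by that of vehicle wells, and values are medians of duplicate plates.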

4EGI-1 + Crizotinib = compound: O=C(O)C(Cc1ccccc1[N+](=O)[O-])=NNc1nc(-c2ccc(Cl)c(Cl)c2)cs1 (mixture of isomers) [4EGI-1] + C[C@@H](Oc1cc(-c2cnn(C3CCNCC3)c2)cnc1N)c1c(Cl)ccc(F)c1Cl [Crizotinib] (partner 1 µM)
In short: as §1

XMD8-85 + Dasatinib = compound: CN1CCN(CC1)C2=CC(=C(C=C2)NC3=NC=C4C(=N3)N(C5=CC=CC=C5C(=O)N4C)C)OC [XMD8-85] + Cc1nc(Nc2ncc(C(=O)Nc3c(C)cccc3Cl)s2)cc(N2CCN(CCO)CC2)n1 [Dasatinib] (partner 0.075 µM)
In short: as §1

4EGI-1 + Olaparib = compound: O=C(O)C(Cc1ccccc1[N+](=O)[O-])=NNc1nc(-c2ccc(Cl)c(Cl)c2)cs1 (mixture of isomers) [4EGI-1] + O=C(c1cc(Cc2n[nH]c(=O)c3ccccc23)ccc1F)N1CCN(C(=O)C2CC2)CC1 [Olaparib] (partner 8 µM)
In short: as §1

Row | Cell Line | relative viability (XMD8-85 + Lapatinib; first compound 0.08 µM) | relative viability (XMD8-85 + Lapatinib; first compound 0.253 µM) | relative viability (XMD8-85 + Lapatinib; first compound 0.8 µM) | relative viability (XMD8-85 + Lapatinib; first compound 2.53 µM) | relative viability (XMD8-85 + Lapatinib; first compound 8 µM) | relative viability (4EGI-1 + Crizotinib; first compound 0.5 µM) | relative viability (4EGI-1 + Crizotinib; first compound 1.581 µM) | relative viability (4EGI-1 + Crizotinib; first compound 5 µM) | relative viability (4EGI-1 + Crizotinib; first compound 15.81 µM) | relative viability (4EGI-1 + Crizotinib; first compound 50 µM) | relative viability (XMD8-85 + Dasatinib; first compound 0.08 µM) | relative viability (XMD8-85 + Dasatinib; first compound 0.253 µM) | relative viability (XMD8-85 + Dasatinib; first compound 0.8 µM) | relative viability (XMD8-85 + Dasatinib; first compound 8 µM) | relative viability (4EGI-1 + Olaparib; first compound 0.5 µM) | relative viability (4EGI-1 + Olaparib; first compound 1.581 µM) | relative viability (4EGI-1 + Olaparib; first compound 5 µM) | relative viability (4EGI-1 + Olaparib; first compound 15.81 µM) | relative viability (4EGI-1 + Olaparib; first compound 50 µM) | relative viability (XMD8-85 + Dasatinib; first compound 2.53 µM)
1 | SK-MES-1 | 0.443 | 0.493 | 0.446 | 0.464 | 0.419 | 1.04 | 0.957 | 1.02 | 0.872 | 0.921 | 0.296 | 0.366 | 0.44 | 0.255 | 0.767 | 0.508 | 0.639 | 0.229 | 0.148 | 
2 | NCI-H1755 | 0.943 | 1.1 | 1.05 | 1.17 | 0.996 | 0.854 | 0.824 | 0.875 | 0.836 | 0.318 | 0.409 | 0.432 | 0.434 | 0.353 | 0.936 | 0.811 | 0.858 | 0.78 | 0.616 | 0.482
3 | NCI-H2405 | 1.04 | 1.18 | 1.13 | 1.1 | 0.636 | 0.865 | 0.747 | 0.909 | 0.896 | 0.854 | 0.206 | 0.206 | 0.221 | 0.177 | 0.909 |  | 0.883 | 0.866 | 0.395 | 0.198
4 | SK-LU-1 | 0.549 | 0.892 | 0.852 | 1.07 | 0.699 | 0.891 | 1.05 | 0.943 | 0.688 | 0.334 | 0.135 | 0.183 | 0.208 | 0.179 | 0.484 | 0.448 | 0.439 | 0.431 | 0.224 | 0.172
5 | PC-14 | 0.32 | 0.398 | 0.276 | 0.38 | 0.268 | 1.08 | 0.617 | 0.875 |  | 0.907 | 0.229 | 0.271 | 0.275 | 0.115 | 0.295 |  | 0.239 | 0.1 | 0.0599 | 0.249
6 | NCI-H2009 | 0.934 | 0.931 | 1.01 | 0.841 | 0.456 | 1.12 | 1.05 | 1.06 | 0.988 | 0.247 | 0.285 | 0.29 | 0.288 | 0.167 | 0.768 | 0.63 | 0.647 | 0.421 | 0.374 | 0.209
7 | NCI-H596 | 1.01 | 1.03 | 1.24 | 1.03 | 0.874 | 1.15 | 0.846 | 1.13 | 0.878 | 0.557 | 0.599 | 0.541 | 0.553 | 0.545 | 0.726 | 0.664 | 0.786 | 0.568 | 0.464 | 0.556
8 | HARA | 0.761 | 0.781 | 0.907 | 0.787 | 0.569 | 1.06 | 1.07 | 1.03 | 0.906 | 0.212 | 0.268 | 0.314 | 0.281 | 0.238 | 0.848 | 0.68 | 1 | 0.515 | 0.18 | 0.261
9 | UMC-11 | 0.835 | 0.853 | 1.17 | 0.976 | 0.724 | 0.718 | 0.594 | 0.643 | 0.602 | 0.314 | 0.418 | 0.437 | 0.556 | 0.335 | 0.36 | 0.35 | 0.369 | 0.332 | 0.222 | 0.512
10 | NCI-H460 | 0.551 | 0.84 | 1.27 | 1.29 | 0.406 | 1.2 |  | 1.02 | 0.517 | 0.0403 | 0.423 | 0.443 | 0.554 | 0.178 | 0.425 |  | 0.436 | 0.244 | 0.134 | 0.475
11 | NCI-H322M | 0.507 | 0.569 | 0.593 | 0.585 | 0.522 | 0.947 | 0.815 | 1.02 | 0.823 | 1.02 | 0.246 | 0.249 | 0.289 | 0.19 | 0.761 |  | 0.795 | 0.761 | 0.457 | 0.232
12 | NCI-H1734 | 1.05 | 0.977 | 1.03 | 1.17 | 0.987 | 0.817 | 0.695 | 0.72 | 0.605 | 0.437 | 0.463 | 0.491 | 0.453 | 0.499 | 0.642 | 0.512 | 0.695 | 0.435 | 0.244 | 0.574
13 | NCI-H2170 | 0.277 | 0.302 | 0.253 | 0.256 | 0.249 | 1.24 | 1.15 | 1.15 | 0.902 | 0.586 | 0.574 | 0.562 | 0.526 | 0.548 | 0.625 | 0.541 | 0.567 | 0.36 | 0.189 | 0.564
14 | HCC-15 | 0.851 | 0.879 | 0.863 | 0.948 | 0.747 | 0.831 | 0.893 | 0.858 | 0.776 | 0.598 | 0.576 | 0.632 | 0.614 | 0.417 | 0.716 | 0.691 | 0.634 | 0.676 | 0.517 | 0.656
15 | NCI-H1651 | 0.764 | 0.842 | 0.96 | 0.977 | 0.555 | 0.853 | 0.823 | 0.911 | 0.803 | 0.836 | 0.46 | 0.334 | 0.511 | 0.307 | 0.186 | 0.176 | 0.185 | 0.189 | 0.151 | 0.387
16 | LOU-NH91 |  | 0.736 | 0.76 | 0.761 | 0.57 | 0.788 |  | 0.72 | 0.508 | 0.55 | 0.553 | 0.555 | 0.573 | 0.459 | 0.95 |  | 0.911 | 0.738 | 0.564 | 0.571
